From patent US12233073B2, “Skin care formulations and skin cancer treatment” (Regents of the University of Minnesota, priority 2017, dated 2025)

Columns and labels:
IFN-γ, IL-12 and PGE2 = assay: Immune system markers (IFN-γ, IL-12, PGE2, T-cell markers) in the SSL-induced prevention models; format: in vivo, mouse; details: for T cell infiltrates in mouse skin: CD3, CD4 markers; for production of IFN-γ in mouse serum: ELISA; for production of IFN-γ in mouse serum / production of IL-12 in mouse serum / production of IL-12 in mouse skin: SSL-induced prevention models; for PGE2 levels in the skin: SSL-exposed skin
Excerpt: Exposure to UV radiation suppresses the immune response and UV-induced immune suppression is a major risk factor for skin cancer. In particular, UV exposure induces the production of Th2-associated cytokines and interferes with antigen presentation to Th1 cells producing IFN-γ. To determine whether rocuronium bromide or betamethasone 17-valerate affects the immune system response, the level of immune system markers, including interferon-γ (IFN-γ), interleukin-12 (IL-12) and prostaglandin E2 (PGE2), in mouse serum and the T-cell markers, CD3 and CD4, were examined. CD3 is associated with the T-cell receptor (TCR) and is essential in signal transduction in T cells following TCR activation. Tumor microenvironment-mediated down-regulation of TCR-associated signaling leads to the inhibition of T cell function and antitumor immunity in the tumor-bearing host. Very few T cells are observed in the epidermis and dermis of solar UV-induced SCCs.
SSL-induced immunosuppressive responses are associated with production of Th2-related cytokines (IL-10) and disturbance of antigen presentation to Th1 cells producing IFN-γ. Therefore, SSL-induced immunosuppression could be prevented by the Th1 cytokine, IFN-γ. An enzyme-linked immunosorbent assay (ELISA) was performed to examine IFN-γ levels in mouse serum. FIG. 25A is a chart comparing the effect of rocuronium bromide treatment on enhancement of IFN-γ production by immune cells in an early-stage SSL-induced prevention model. IL-12 is an immunoregulatory cytokine to reverse UV-induced DNA damage and immunosuppression, and also regulates the function and development of Th1 type cells by stimulating IFN-γ production. Furthermore, treatment with recombinant IL-12 reversed the UV-induced immunosuppression. Additionally, PGE2 plays a key role as an activator of UV-induced immunosuppression through its down-regulation of the levels of IL-12. Thus, the effects of PRPK inhibitors on SSL-induced changes on the immunoregulatory cytokines, IL-12 and PGE2, were investigated.

[1] = Absorption of sUV wavelengths by the PRPK inhibitors; format: physicochemical; details: for absorption of sUV wavelengths: UVB or UVA range (280 to 400 nm)
Method: To assess whether the effectiveness of rocuronium bromide or betamethasone 17-valerate was related to absorption or attenuation of sUV wavelengths, instead of or in addition to inhibition of PRPK phosphorylation, absorption of sUV wavelengths by rocuronium bromide or betamethasone 17-valerate was evaluated. […] The maximum absorption wavelength for rocuronium bromide was 227 nm, and that for betamethasone-17-valerate was 240 nm.

[2] = test system: SSL-induced skin carcinogenesis in SKH-1 hairless mice; assay: Chronic SSL-induced skin carcinogenesis in SKH-1 hairless mice (early-stage and late-stage prevention models); format: in vivo, mouse; details: for SSL-induced neovascularization in tumor areas: early- and late-stage models (FIGS. 23, 24A, 24B); for SSL-induced skin carcinogenesis: topical cream 0.1% or 1%; for Ki-67 expression / PRPK phosphorylation: skin staining, FIGS. 23, 24A, 24B
Method: The effectiveness of rocuronium bromide (EXAMPLES 11 and 12) and betamethasone 17-valerate (EXAMPLE 13) in mouse models of chronic sUV-induced skin carcinogenesis was evaluated. Female SKH-1 hairless mice (5 weeks old, Charles River, Burlington, MA) were used. Skin carcinogenesis was induced by SSL-irradiation source lamps. […] For topical treatment to the dorsal mouse skin, cream (oil-in-water emulsions) containing 0.1% or 1% (0.1 or 1 mg in 100 μl) of rocuronium bromide or betamethasone 17-valerate were prepared. The models included early-stage prevention models (EXAMPLE 11) and a late-stage prevention models (EXAMPLES 12 and 13). […] SSL treatment was for 15 weeks and the drug cream was continued for 29 weeks. In the late-stage model, mice received SSL for 15 weeks at which time they began receiving topical application with rocuronium bromide or betamethasone 17-valerate. For the early stage model, SKH-1 hairless mice were divided into groups as follows: Groups 1 and 2 were negative control groups, untreated and treated with only cream vehicle with no SSL exposure; Group 3=1% rocuronium bromide; Group 4=SSL alone without cream; Group 5=SSL with cream only; Group 6=0.1% rocuronium bromidein cream with SSL; Group 7=1% rocuronium bromide in cream with SSL. For the late stage models, groups were as follows: Groups 8 and 9 were negative control groups, untreated and treated with only cream vehicle with no SSL exposure; Group 10=1% rocuronium bromide only; Group 11=1% betamethasone 17-valerate only; Group 12=SSL alone with cream; Group 13=SSL with 0.1% rocuronium bromide; Group 14=1% rocuronium bromide in cream with SSL; Group 15=0.1% betamethasone 17-valerate in cream with SSL; and Group 16=1% […] betamethasone 17-valerate in cream with SSL. An antibiotic ointment was applied to the eyes of each mouse prior to SSL exposure and body weight and tumor volume were measured each week.

PRPK in A431 lysates = molecular target: T1, PRPK in A431 lysates (Homo sapiens, UniProt Q96S44); assay: Ex vivo binding assay, drug-conjugated Sepharose 4B beads with A431 cell lysates; details: pull-down with drug-conjugated Sepharose 4B beads
T1 construct: endogenous in cells; host or cells: A431
T1 sequence (Q96S44 1-253): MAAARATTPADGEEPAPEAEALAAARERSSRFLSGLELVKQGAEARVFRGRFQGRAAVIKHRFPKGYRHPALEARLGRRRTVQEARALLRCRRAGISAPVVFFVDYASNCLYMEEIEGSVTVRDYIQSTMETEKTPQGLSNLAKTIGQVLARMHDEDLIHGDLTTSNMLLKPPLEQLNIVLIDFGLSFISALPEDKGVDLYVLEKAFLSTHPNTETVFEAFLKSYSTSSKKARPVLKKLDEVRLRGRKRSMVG
Method: (§1) The interaction between rocuronium bromide and PRPK, and the inhibition of PRPK phosphorylation by rocuronium bromide was evaluated. In vitro and ex vivo binding assays were conducted using GST-PRPK or A431 cell lysates and rocuronium bromide-conjugated Sepharose 4B beads. FIG. 13A is a photograph illustrating a chromatographic plate showing the interaction and binding of PRPK with rocuronium bromide in A431 cells. FIG. 13B is a photograph illustrating a chromatographic plate showing the interaction and binding of rocuronium bromide with wildtype PRPK recombinant GST protein.
as §1, with “betamethasone 17-valerate” for “rocuronium bromide”, “using recombinant” for “using”, “betamethasone 17-valerate-conjugated” for “rocuronium bromide-conjugated”, “14A” for “13A”, “14B” for “13B”

| SMILES | T cell infiltrates in mouse skin (IFN-γ, IL-12 and PGE2) | production of IFN-γ in mouse serum (IFN-γ, IL-12 and PGE2) | PGE2 levels in the skin (IFN-γ, IL-12 and PGE2) | production of IL-12 in mouse serum (IFN-γ, IL-12 and PGE2) | production of IL-12 in mouse skin (IFN-γ, IL-12 and PGE2) | maximum absorption wavelength [1] | absorption of sUV wavelengths [1] | SSL-induced neovascularization in tumor areas [2] | tumor number ([2]; late-stage model) | tumor volume ([2]; late-stage model) | SSL-induced skin carcinogenesis ([2]; late-stage model) | Ki-67 expression [2] | PRPK phosphorylation [2] | binding to PRPK in A431 lysates (PRPK in A431 lysates) | other results |
| --- | --- | --- | --- | --- | --- | --- | --- | --- | --- | --- | --- | --- | --- | --- | --- |
| C=CC[N+]1([C@H]2C[C@H]3[C@@H]4CC[C@H]5C[C@H](O)[C@@H](N6CCOCC6)C[C@]5(C)[C@H]4CC[C@]3(C)[C@H]2OC(C)=O)CCCC1 [rocuronium bromide] | dense T cell infiltrates | increased | decreased | increased | increased | 227 nm | do not Substantially Absorb or Block | inhibited | decreased | decreased | reduced | inhibited | inhibited | binds | levels of COX-2 in SKH-1 hairless mouse skin ([2]; FIGS. 20C, 21C): suppressed; levels of MMP-9 in SKH-1 hairless mouse skin ([2]; FIGS. 20C, 21C): suppressed; levels of cyclin D1 in SKH-1 hairless mouse skin ([2]; FIGS. 20C, 21C): suppressed; levels of phosphorylated PRPK in SKH-1 hairless mouse skin ([2]; FIGS. 20C, 21C): suppressed; tumor volume ([2]; early-stage model (FIG. 20A)): decreased; tumor number ([2]; early-stage model (FIG. 20B)): decreased; SSL-induced skin carcinogenesis ([2]; early-stage model): reduced |
| CCCCC(=O)O[C@]1(C(=O)CO)[C@@H](C)C[C@H]2[C@@H]3CCC4=CC(=O)C=C[C@]4(C)[C@@]3(F)[C@@H](O)C[C@@]21C [betamethasone 17-valerate] | dense T cell infiltrates | increased | decreased | increased | increased | 240 nm | do not Substantially Absorb or Block | inhibited | reduces | reduces | reduced | inhibited | inhibited | binds | – |
